The data set can be described thus: Pharmacokinetic test, single oral administration to beagle dogs. In kind it is in vivo. To be noted: dog, blood, 20 mg/kg, once, 20 mpk, vehicle 0.5% CMC-Na. On the procedure: The crystalline form I of compound A monohydrochloride monohydrate and compound A (vehicles for both samples were 0.5% CMC-Na) were respectively orally administered once to two groups of beagle dogs at a dose of 20 mpk, and blood samples were collected before the administration (0 h) and at 0.25, 0.5, 1, 2, 4, 6, 8 and 24 hours after the administration. The samples were processed and subjected to a chromatographic analysis.

As a reminder, the Cmax is the peak of the concentration-time curve. The AUC(0-t) is the area under the concentration-time curve up to a stated or last time point. High values mean high exposure, low ones low exposure.

Molecules are shown by their SMILES.

The molecule `Cn1c(C(=O)N2CC(F)(F)C2)cc2ccc(-c3nccc(Nc4ccc(-c5cn[nH]c5)cc4)n3)cc21` [Compound A, (6-(4-((4-(1H-pyrazol-4-yl)phenyl)amino)pyrimidin-2-yl)-1-methyl-1H-indol-2-yl)(3,3-difluoroazetidin-1-yl)methanone] had a Cmax of 147 ng/mL. For the same molecule, for the setting “sampling to 24 hours”, the AUC(0-t) worked out at 522 ng·h/mL.

Values taken from patent US20230312530A1, “SALT OF RHO-ASSOCIATED PROTEIN KINASE INHIBITOR, SOLID FORM OF THE SALT, PREPARATION METHOD FOR SAME, AND USES THEREOF” (BEIJING TIDE PHARMACEUTICAL CO., LTD., priority 2020, published 2023).
